Measurements published in patent US5114960A, “Substituted isoxazole derivatives” (Hoffmann-La Roche Inc., priority 1989, dated 1992).

System: IL-1-dependent PGE^2
Assay: IL-1-dependent PGE2 inhibition test in human rheumatoid synovial cell lines
Type: cell-based
Details: recombinant human IL-1 alpha 0.1 ng/ml, 7 hours, 37° C., read-out: IC50 (concentration reducing PGE2 release to 50% of IL-1-stimulated control values)
Description: IL-1-dependent PGE ^2 inhibition test:
Human rheumatoid synovial cell lines, prepared by the enzymatic dissociation of fresh rheumatoid tissue, were maintained by culture in Dulbecco's modified Eagle medium containing 25 mM HEPES, 10% foetal calf serum, 100 units of penicillin per ml and 100 μg of streptomycin per ml (culture medium). Standard incubation conditions were 37° C. in a water-saturated atmosphere containing 95% air and 5% CO2.
Semi-confluent cultures at the third to eighteenth passage were detached by trypsin treatment and resuspended in culture medium at […]. The cell suspension was distributed to 200 μl aliquots into the wells of a 96-well microtitration plate and incubated for 18 hours at 37° C. to allow adhesion of the cells.
Test substances were dissolved in equimolar sodium hydroxide solution and double-dilution series were prepared in sterile water. If the test substances is a compound of formula I in which one of R^1 and R^2 is alkoxycarbonyl and the other hydrogen, it is treated with hog liver esterase prior to carrying out the test. The medium was aspirated from the microcultures of the synovial cells. 170 μl of culture medium were added and the cultures were treated with 20 μl of test substances and then 10 μl of recombinant human IL-1 alpha culture medium to give a final concentration of 0.1 ng/ml. All treatments were carried out in quadruplet. After incubation for 7 hours, samples of the culture media were removed and stored at -20° C. prior to assay for PGE2. The PGE2 content was determined using a [^I 125]R1A kit obtained from NEN Products.
PGE2 concentration detected in unstimulated controls were subtracted from values determined in all stimulated cultures and results were transformed to percent of IL-1-stimulated control PGE2 values. IC50 values were determined by interpolation as those concentrations reducing PGE2 release to 50% of IL-1-stimulated control values.

Row | IC50 [nM] | Compound
1 | 8000 | CO[C@@H]1CC[C@@H](C(=O)O)Cc2onc(-c3ccc(Cl)cc3)c21 (relative stereo) [Compound D, trans-3-(4-Chlorophenyl)-5,6,7,8-tetrahydro-4-methoxy-4H-cyclohept[d]isoxazole-7-carboxylic acid]
2 | 40 | C[C@H]1CC[C@H](C(=O)O)Cc2onc(-c3ccc(Cl)cc3)c21 (relative stereo) [Compound E, trans-3-(4-Chlorophenyl)-5,6,7,8-tetrahydro-4-methyl-4H-cyclohept[d]isoaxazole-7-carboxylic acid]
3 | 2000 | O=C(O)C1CCc2onc(-c3ccc(Cl)cc3)c2CC1 (single isomer, unassigned; (+)) [Compound A, (+)-3-(4-Chlorophenyl)-5,6,7,8-tetrahydro-4H-cyclohept[d]isoxazole-6-carboxylic acid]
4 | 15000 | O=C(O)C1CCCc2c(-c3ccc(Cl)cc3)noc2C1 (stereo not drawn) [Compound B, 3-(4-Chlorophenyl)-5,6,7,8-tetrahydro-4H-cyclohept[d]isoxazole-7-carboxylic acid]

Row | Compound | IC50 [nM]
5 | O=C(O)[C@H]1[C@H]2CCc3c(-c4ccc(Cl)cc4)noc3[C@H]21 (relative stereo) [Compound C, endo-3-(4-Chlorophenyl)-5,5a,6,6a-tetrahydro-4H-cyclopropa[g]-1,2-benzisoxazole-6-carboxylic acid] | 500
6 | CCC1(C(=O)O)C2CCc3c(-c4ccc(Cl)cc4)noc3C21 (stereo not drawn) [Compound F, endo-3-(4-Chlorophenyl)-6-ethyl-5,5a,6,6a-tetrahydro-4H-cyclopropa[g]-1,2-benzisoxazole-6-carboxylic acid] | 700
